# Measurements as given in patent US20210187106A1, “COMBINATION OF LIF INHIBITORS AND PLATINUM-BASED ANTINEOPLASTIC AGENTS FOR USE IN TREATING CANCER” (MEDIMMUNE LIMITED, priority 2018, published 2021).
# Where “and” joins values, the source holds several entries; their conditions need not be identical. Identical values can stand only once. Entries after “also recorded” stand apart in the source; their conditions may differ.
# Tests used:
# CT26 tumors [1] = assay: Subcutaneous implanted CT26 model, h5D8 combined with cisplatin, doxorubicin or paclitaxel; assay type: in vivo, mouse; conditions: individual BALB/c mice, h5D8 15 mg/kg twice a week, cisplatin 10 mg/kg once a week, paclitaxel 15 mg/kg twice a week, doxorubicin 4 mg/kg once a week
# CT26 tumors [2] = assay: Subcutaneous colon CT26 syngeneic tumor model in mice; assay type: in vivo, mouse; conditions: FIG. 10E
# Experimental: CT26 cells were cultured in Roswell Park Memorial Institute medium (RPMI [Gibco, Invitrogen]), supplemented with 10% Fetal Bovine Serum (FBS), 40 U/mL penicillin and 40 μg/mL streptomycin (PenStrep) and 0.25 μg/mL Plasmocin.
# CT26 cells (8×10^5)were trypsinized, rinsed with PBS, centrifuged at 400 g for 5 minutes and resuspended in 100 μL PBS. Cells were kept on ice to avoid cell death. The CT26 cells were administered to mice via subcutaneous injection using a 27G needle.
# 300 μg r5D8, or vehicle control, was administered to the mice via intraperitoneal injection (IP) twice weekly from day 3 post CT26 cell implant.
# Body weight and tumor volumes were measured three times per week. Tumor volume was measured using a caliper (Fisher Scientific).
# [3] = test system: STAT3 phosphorylation (Tyr 705) in U251 glioma cells; assay: Inhibition of STAT3 phosphorylation in glioma cell culture model of LIF activation, western blot; assay type: cell-based, human; conditions: 10 μg/ml over night, FIG. 2A
# Experimental: U251 glioma cells were plated in 6-well plates at a density of 150,000 cells/well. Cells were cultured in complete medium for 24 hours before any treatment.
# After treatment, proteins were obtained in radio-immunoprecipitation assay (RIPA) lysis buffer containing phosphatase and protease inhibitors, quantified (BCA-protein assay, Thermo Fisher Scientific) and used in western blot. For western blot, membranes were blocked for 1 hour in 5% non-fatty milk—TBST and incubated with the primary antibody overnight (p-STAT3, catalog #9145, Cell Signaling or STAT3, catalog #9132, Cell Signaling) or 30 minutes (β-actin-peroxidase, catalog #A3854, Sigma-Aldrich). Membranes were then washed with TBST, incubated with secondary antibody if necessary, and washed again. Proteins were detected by chemiluminescence (SuperSignal Substrate, catalog #34076, Thermo Fisher Scientific).
# ID8 cells = assay: Ovarian orthotopic syngeneic tumor model ID8 in mice; assay type: in vivo; conditions: 200 μg/mouse and above twice weekly, FIG. 8C
# Experimental: The efficacy of r5D8 was evaluated in two other syngeneic tumor models.
# ID8 cells were cultured in Dulbecco's Modified Eagle Medium (DMEM) (Gibco, Invitrogen), supplemented with 10% Fetal Bovine Serum (FBS) (Gibco, Invitrogen), 40 U/mL Penicillin and 40 μg/mL Streptomycin (PenStrep) (Gibco, Invitrogen) and 0.25 μg/mL Plasmocin (Invivogen).
# The ID8 cells were harvested, washed in PBS, centrifuged at 400 g for 5 min and resuspended in PBS. Cells were kept on ice to maintain optimal viability and 200 μL of the cell suspension was injected intraperitoneally with a 27G needle. The final cell number implanted into mice was 5×10^6.
# Mice were treated twice weekly with h5D8 administered ip at different doses as indicated. Body weights were measured 2 times/week and tumor progression was monitored by measuring abdominal girth using a caliper (Fisher Scientific).
# [4] = test system: LIF-induced STAT3 phosphorylation in U251 glioma cells; assay: Inhibition of LIF-induced STAT3 phosphorylation (Tyr705) by western blot, 5D8 humanization panel; assay type: cell-based, human; conditions: serum starved, antibody 10 μg/ml over night
# Experimental: One clone from the rat immunization (5D8) was chosen for subsequent humanization. Humanization was conducted using standard CDR grafting methods. The heavy chain and light chain regions were cloned from the 5D8 hybridoma using standard molecular cloning techniques and sequenced by the Sanger method. A BLAST search was then conducted against human heavy chain and light chain variable sequences and 4 sequences from each were chosen as acceptor frameworks for humanization. These acceptor frameworks were deimmunized to remove T cell response epitopes. The heavy chain and light chain CDR1, CDR2 and CDR3 of 5D8 were cloned into the 4 different heavy chain acceptor frameworks (H1 to H4), and 4 different light chain frameworks (L1 to L4). Then all 16 different antibodies were tested for: expression in CHO-S cells (Selexis); inhibition of LIF-induced STAT3 phosphorylation; and binding affinity by Surface Plasmon Resonance (SPR). These experiments are summarized in
# Inhibition of LIF-induced STAT3 phosphorylation at tyrosine 705 was determined by western blot. […] After treatment, proteins were obtained in radio-immunoprecipitation assay (RIPA) lysis buffer containing phosphatase and protease inhibitors, quantified (BCA-protein assay, Thermo Fisher Scientific) and used in western blot. […] Proteins were detected by chemiluminescence (SuperSignal Substrate, catalog #34076, Thermo Fisher Scientific). […]
# [5] = test system: CCL22 and CD206 (MRC1) expression in patient samples; assay: Human organotypic tissue slice culture model, M2 macrophage markers; assay type: cell-based; conditions: three patient samples, FIG. 10B
# human U251 GBM cells = assay: Orthotopic GBM tumor model with luciferase expressing U251 cells in mice; assay type: in vivo; conditions: 200 μg or 300 μg twice a week, FIG. 7B
# Experimental: Results of this study are shown in FIG. 7A (quantitation at day 26 post treatment). […] Tumor size was determined by bioluminescence (Xenogen IVIS Spectrum) on day 7. […] Statistical significance was calculated using the unpaired non-parametric Mann-Whitney U-test.
# U251 cells stably expressing luciferase were harvested, washed in PBS, centrifuged at 400 g for 5 min, resuspended in PBS and counted with an automated cell counter (Countess, Invitrogen). Cells were kept on ice to maintain optimal viability. Mice were anaesthetized with intraperitoneal administration of Ketamine (Ketolar50®)/Xylacine (Rompún®) (75 mg/kg and 10 mg/kg respectively). Each mouse was carefully placed in the stereotactic device and immobilized. […]
# Body weight and tumor volume: Body weight was measured 2 times/week and tumor growth was quantified by bioluminescence on day 7 (Xenogen IVIS Spectrum). To quantify bioluminescence activity in vivo, mice were anaesthetized using isofluorane, and injected intraperitoneally with luciferin substrate (PerkinElmer) ([…]).
# Tumor size as determined by bioluminescence (Xenogen IVIS Spectrum) was evaluated at day 7. The individual tumor measurements and mean±SEM for each treatment group were calculated. Statistical significance was determined by the unpaired non-parametric Mann-Whitney U-test.
# [6] = test system: KLN205 non-small cell lung cancer (NSCLC) cells; assay: Orthotopic syngeneic mouse model of non-small cell lung carcinoma (KLN205); assay type: in vivo; conditions: DBA/2 mice, 15 mg/kg or 30 mg/kg intraperitoneally twice a week, versus vehicle
# Experimental: To determine the ability of the humanized 5D8 clone to inhibit a LIF positive cancer in vivo this antibody was tested in a mouse model of non-small cell lung carcinoma (NSCLC).
# The murine non-small cell lung cancer (NSCLC) cell line KLN205 with high LIF levels was stably infected with lentivirus expressing the firefly luciferase gene for in vivo bioluminescence monitoring. To develop the mouse model, 5×10^5KLN205 non-small cell lung cancer (NSCLC) cells were orthotopically implanted into the left lung of 8-week-old immunocompetent syngeneic DBA/2 mice by intercostal puncture. […] For the bioluminescence imaging, mice received an intraperitoneal injection of 0.2 mL of 15 mg/mL D-luciferin under 1-2% inhaled isoflurane anesthesia. The bioluminescence signals were monitored using the IVIS system 2000 series (Xenogen Corp., Alameda, Calif., USA) consisting of a highly sensitive cooled CCD camera. Living Image software (Xenogen Corp.) was used to grid the imaging data and integrate the total bioluminescence signals in each boxed region. Data were analyzed using the total photon flux emission (photons/second) in the regions of interest (ROI). […] Data are presented as mean±SEM.
molecule,measurement,setting,value
CC(=O)O[C@H]1C(=O)[C@@]2(C)[C@H]([C@H](OC(=O)c3ccccc3)[C@]3(O)C[C@H](OC(=O)[C@H](O)[C@@H](NC(=O)c4ccccc4)c4ccccc4)C(C)=C1C3(C)C)[C@]1(OC(C)=O)CO[C@@H]1C[C@@H]2O [Paclitaxel],Tumor Volumes at Endpoint (Day 21),CT26 tumors [1],651.8 mm^3 and 214.0 mm^3 and 461.5 mm^3 and 698.3 mm^3 and 457.7 mm^3 and 256.2 mm^3 and 592.2 mm^3 and 435.9 mm^3 and 762.1 mm^3 and 1236.2 mm^3 and 112.9 mm^3
"N.N.[Cl][Pt][Cl] [Cisplatin, cis-diamminedichloridoplatinum(II)]",Tumor Volumes at Endpoint (Day 21),CT26 tumors [1],328.5 mm^3 and 1279.7 mm^3 and 689.4 mm^3 and 512.3 mm^3 and 193.9 mm^3 and 997.5 mm^3 and 257.9 mm^3 and 924.4 mm^3 and 744.2 mm^3 and 1313.6 mm^3 and 676.0 mm^3 and 953.8 mm^3
"h5D8: humanized (CDR grafted) version of rat anti-LIF antibody 5D8, H2 heavy and L2 light chain; VH SEQ ID NO: 42, VL SEQ ID NO: 46",inflammatory phenotype of tumor associated macrophages (TAMs),"CT26 tumors [2]; 15 mg/kg, 2 QW, day 25 (endpoint)",polarized towards the M1 pro-inflammatory phenotype
same,macrophages with an M1 phenotype (CD206 negative/MHCII positive fraction),CT26 tumors [2]; syngeneic CT26 tumor model,increased
same,macrophages with an M2 phenotype (CD206 positive/MHCII negative fraction),CT26 tumors [2]; syngeneic CT26 tumor model,decreased
same,inhibition of STAT3 phosphorylation (Tyr 705) versus parental antibody,[3],increased inhibition
same,tumor volume / tumor growth,ID8 cells,reduced tumor volume; also recorded: significant reduction in tumor growth
same,"Inhibition of LIF-induced STAT3 phosphorylation (FIG. 1, in words)",[4],high
same,CCL22 and CD206 (MRC1) expression,[5],significant decrease
same,Tumor Volumes at Endpoint (Day 21),CT26 tumors [1],656.8 mm^3 and 1354.4 mm^3 and 1190.7 mm^3 and 1109.1 mm^3 and 906.6 mm^3 and 640.3 mm^3 and 0.0 mm^3 and 956.9 mm^3 and 318.7 mm^3 and 253.6 mm^3 and 1408.5 mm^3 and 508.3 mm^3
same,tumor size by bioluminescence on day 7,human U251 GBM cells,statistically significant reduction in tumor
same,tumor growth by bioluminescence,[6],promote tumor regression
same,tumor growth by bioluminescence,[6]; listed as humanized 5D8,reduced tumor growth
COc1cccc2c1C(=O)c1c(O)c3c(c(O)c1C2=O)C[C@@](O)(C(=O)CO)C[C@@H]3O[C@H]1C[C@H](N)[C@H](O)[C@H](C)O1 [Doxorubicin],Tumor Volumes at Endpoint (Day 21),CT26 tumors [1],408.7 mm^3 and 1207.4 mm^3 and 94.2 mm^3 and 109.1 mm^3 and 294.9 mm^3 and 780.2 mm^3 and 351.2 mm^3 and 735.2 mm^3 and 48.9 mm^3 and 463.9 mm^3 and 588.8 mm^3 and 230.3 mm^3
